Reference: PMC7688903 (Frontiers in Microbiology, 2020)
Values after ≈ are worked out from the molar mass of the structure shown. Where a SMILES comes first, the peptide text is derived from it. [ ]: non-standard residue; d: D form. 2Thi = N[C@@H](Cc1cccs1)C(=O)O; Aib = CC(C)(N)C(=O)O

Tests used:
E. coli ATCC 25922 = format: cell-based, Escherichia coli; details: ATCC 25922, 20 h
How it was run: (§1)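 Inocula were set to 0.5 McFarland and diluted to ~5 × 10^5 CFU/mL (bacteria, MH broth) or 0.5 × 10^3 to 2.5 × 10^3 CFU/mL (yeast, RPMI 1640). Peptide twofold dilutions were added, plates incubated 20 h at 37°C or 48 h at 35°C, then scored by eye.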

P. aeruginosa ATCC 27853 = format: cell-based, Pseudomonas aeruginosa; details: ATCC 27853, 20 h
How it was run: as §1

[1] = test system: carbapenem-resistant P. aeruginosa (CRPA) SIPI-012; format: cell-based, Pseudomonas aeruginosa; details: carbapenem-resistant (CRPA) SIPI-012, 20 h
How it was run: as §1

A. baumannii ATCC 19606 = format: cell-based, Acinetobacter baumannii; details: ATCC 19606, 20 h
How it was run: as §1

[2] = test system: carbapenem-resistant A. baumannii (CRAB) SIPI-025; format: cell-based, Acinetobacter baumannii; details: carbapenem-resistant (CRAB) SIPI-025, 20 h
How it was run: as §1

S. aureus ATCC 25923 = assay: microbe, parasite or virus in culture; format: cell-based, Staphylococcus aureus; details: ATCC 25923, 20 h
How it was run: as §1

C. albicans ATCC 10231 = assay: microbe, parasite or virus in culture; format: cell-based, Candida albicans; details: ATCC 10231, 48 h
How it was run: as §1

[3] = test system: proteases secreted by S. aureus ATCC 25923; assay: in vitro
How it was run: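 Cell-free culture supernatants (overnight, 37°C; MH broth for bacteria, 2% tryptone/2% dextrose for yeast) were centrifuged, adjusted to pH 8.0 and 0.22 μm filtered. Peptides at 0.5 mg/mL were incubated in supernatant 24 h at 37°C; remaining intact peptide measured by RP-HPLC, with peptide-free supernatant as negative control.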

human erythrocytes = assay: Hemolytic activity assay; format: cell-based; details: human RBC in PB, 37°C, 1 h, OD420, total lysis control 0.1% SDS, three technical replicates
How it was run: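 Washed RBCs from a healthy volunteer were incubated with peptides at 32–128 μM for 1 h at 37°C in PB. Hemoglobin release into the supernatant was read as OD420 against total lysis with 0.1% SDS, in three technical replicates.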

RAW 264.7 cells = assay: Cell viability assay (MTT); format: cell-based, mouse; details: 1–128 μM peptide in DMEM with 4% FBS, 42 h, 595 nm, triplicate
How it was run: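 RAW 264.7 cells (1 × 10^4/well, DMEM + 10% FBS) grown overnight to 80% confluency, then exposed to peptides at 1–128 μM in DMEM with 4% FBS for 42 h at 37 °C. MTT read at 595 nm; viability relative to medium-only controls, triplicate, IC50 as 50% loss of viability.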

CC(C)C[C@H](NC(=O)[C@H](CC(C)C)NC(=O)[C@@H](CCCCN)NC(=O)[C@@H](CCCCN)NC(=O)[C@H](Cc1ccccc1)NC(=O)[C@H](CC(C)C)NC(=O)[C@@H](CCCNC(=N)N)NC(=O)[C@H](N)CCCCN)C(=O)N[C@H](CCCCN)C(=O)N[C@@H](Cc1ccc(O)cc1)C(=O)N[C@@H](CC(C)C)C(=O)N[C@H](CCCNC(=N)N)C(=O)N[C@H](CCCCN)C(=O)N[C@@H](Cc1ccccc1)C(N)=O [DP06] (H-[dK][dR]LF[dK][dK]LL[dK]YL[dR][dK]F-NH2)
MIC (E. coli ATCC 25922): 1 µg/mL (≈ 0.532 µM) | MIC (P. aeruginosa ATCC 27853): 1 µg/mL (≈ 0.532 µM) | MIC [1]: 8 µg/mL (≈ 4.25 µM) | MIC (A. baumannii ATCC 19606): 1 µg/mL (≈ 0.532 µM) | MIC [2]: 2 µg/mL (≈ 1.06 µM) | MIC (S. aureus ATCC 25923): 0.5 µg/mL (≈ 0.266 µM) | MIC (C. albicans ATCC 10231): 2 µg/mL (≈ 1.06 µM) | remaining at 24 h, 0.5 mg/mL ([3]; Staphylococcus aureus, S. aureus ATCC 25923 culture supernatant, pH 8): 86.4 ± 4.81% | Hemolysis rate (%) (human erythrocytes; 64 μM): 37.14 ± 2.73% | Hemolysis rate (%) (human erythrocytes; 128 μM): 59.99 ± 2.41% | IC50 (RAW 264.7 cells): 48.8 ± 6.97 µM

CC(C)C[C@H](NC(=O)[C@H](Cc1ccc(O)cc1)NC(=O)[C@H](CCCCN)NC(=O)[C@H](CC(C)C)NC(=O)[C@H](CC(C)C)NC(=O)[C@H](CCCCN)NC(=O)[C@H](CCCCN)NC(=O)[C@H](Cc1ccccc1)NC(=O)[C@H](CC(C)C)NC(=O)[C@H](CCCNC(=N)N)NC(=O)C(C)(C)N)C(=O)N[C@@H](CCCNC(=N)N)C(=O)N[C@@H](CCCCN)C(=O)N[C@@H](Cc1cccs1)C(N)=O [UP09] (H-[Aib]RLFKKLLKYLRK[2Thi]-NH2; N-terminus assumed)
MIC (E. coli ATCC 25922): 2 µg/mL (≈ 1.08 µM) | MIC (P. aeruginosa ATCC 27853): 2 µg/mL (≈ 1.08 µM) | MIC [1]: 4 µg/mL (≈ 2.17 µM) | MIC (A. baumannii ATCC 19606): 2 µg/mL (≈ 1.08 µM) | MIC [2]: 2 µg/mL (≈ 1.08 µM) | MIC (S. aureus ATCC 25923): 1 µg/mL (≈ 0.542 µM) | MIC (C. albicans ATCC 10231): 4 µg/mL (≈ 2.17 µM) | Percent of remained peptide amount after incubation (%) ([3]; S. aureus ATCC 25923 culture supernatant (MH broth), pH 8.0, 0.22 μm filtered, peptide 0.5 mg/mL, 37°C, 24 h, RP-HPLC): 36.92 ± 3.97 % | Hemolysis rate (%) (human erythrocytes; 64 μM): 55.99 ± 3.75 % | Hemolysis rate (%) (human erythrocytes; 128 μM): 95.99 ± 2.10 % | IC50 (RAW 264.7 cells): 26.2 ± 1.8 µM
